Values of other authors, collected in US9452976B2, “Pactamycin analogs and methods of making thereof” (Oregon State University, priority 2007, dated 2016).

What was measured:
[1] = test system: Gram-positive and Gram-negative bacteria
[2] = reason clinical application was abandoned

CC[C@]1(NC(=O)N(C)C)[C@@H](N)[C@H](Nc2cccc(C(C)=O)c2)[C@](O)(COC(=O)c2c(C)cccc2O)[C@]1(C)O [7-Deoxypactamycin, 7-deoxypactamycin]
activity against a number of Gram-positive and Gram-negative bacteria, compared with pactamycin ([1]; relative to pactamycin): equally active

CC(=O)c1cccc(N[C@H]2[C@H](N)[C@@](NC(=O)N(C)C)([C@H](C)O)[C@@](C)(O)[C@@]2(O)COC(=O)c2c(C)cccc2O)c1 [Pactamycin, pactamycin]
antibacterial activities against Gram-positive and Gram-negative bacteria ([1]; Bhuyan, Appl. Microbiol. 1962): potent antibacterial activities | toxicity [2]: high toxicity | anti-tumor activity (tumor): strong anti-tumor activity

CC(=O)c1cccc(N[C@H]2[C@H](N)[C@]3(NC(=O)O[C@H]3C)[C@@](C)(O)[C@@]2(O)COC(=O)c2c(C)cccc2O)c1 [pactamycate]
bioactivity of the cyclic derivative formed by attack of C-7 hydroxyl on the carbamoyl carbonyl [1]: inactive
